Numbered stars: 1 amine (or outer) side, 2 acyl side, 3 side chain; on linkers, the order of the positions; unused ones are H or OH. Square brackets hold non-standard residues; d marks the D form. Side chains are listed from the residue outwards. Peptide text beside a SMILES is read from it. * marks the point of attachment. Phe(4-CH2NH2) = NCc1ccc(C[C@H](N)C(=O)O)cc1; C18 diacid = O=C(O)CCCCCCCCCCCCCCCCC(=O)*; γGlu = O=C(O)[C@H](CCC(=O)[*:2])N[*:1]; Met(O2) = CS(=O)(=O)CC[C@H](N)C(=O)O; αMeD = C[C@](N)(CC(=O)O)C(=O)O; AEEA = NCCOCCOCC(=O)O; Aib = CC(C)(N)C(=O)O
Target: T1, human GCGR (Homo sapiens, UniProt P47871)
T1 construct: expressed in transfected cells; growth medium holds Blasticidin and Hygromycin
T1 sequence (P47871 26-477): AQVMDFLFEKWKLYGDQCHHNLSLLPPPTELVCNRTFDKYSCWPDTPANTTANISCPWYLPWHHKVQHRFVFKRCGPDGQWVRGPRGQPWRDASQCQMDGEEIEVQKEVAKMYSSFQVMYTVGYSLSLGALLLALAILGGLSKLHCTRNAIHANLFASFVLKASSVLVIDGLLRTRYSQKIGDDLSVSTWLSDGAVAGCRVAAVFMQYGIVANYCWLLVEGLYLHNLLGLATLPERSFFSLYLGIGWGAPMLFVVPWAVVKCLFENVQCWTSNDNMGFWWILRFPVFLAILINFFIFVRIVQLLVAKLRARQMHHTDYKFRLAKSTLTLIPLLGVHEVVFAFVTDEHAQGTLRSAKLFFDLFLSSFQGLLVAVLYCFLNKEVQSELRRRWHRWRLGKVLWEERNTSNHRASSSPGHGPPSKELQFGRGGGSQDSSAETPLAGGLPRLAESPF
Assay: cAMP activity assay at the Glucagon receptor (GCGR)
Format: cell-based
Conditions: for EC50: cells expressing human GCGR, cAMP production, buffer with or without 20% human serum (not stated which), read-out: GCGR EC50 human; for hGCGR/hGLP1R (hTone): ratio of GCGR EC50 to GLP1R EC50
Procedure: Activity of the peptides at the Glucagon receptor (GCGR) and GLP-1 receptor (GLP1R) was measured in a cAMP activity assay.
GCG/GLP-1 receptor co-agonist peptides were dissolved in 100% DMSO (dimethyl sulfoxide) and serially diluted to generate 10 point titrations. The peptide solutions were then transferred into 384-well assay plates (150 nL/well). Assay ready frozen cells expressing human GLP1R or human GCGR were suspended in growth media consisting of DMEM medium (GIBCO®), 10% FBS (GIBCO®), 1×NEAA(GIBCO®), 1×P/S (GIBCO®), 10 ug/mL Blasticidin (GIBCO®) and 200 μg/mL Hygromycin (GIBCO®). […] The cell suspensions (15 μL) were then added to the assay plates containing the peptide solutions (30,000 cells/well for human GCGR; 10,000 cells/well for human GLP1R). The cells were incubated for 1 hour at room temperature in the dark. Production of cAMP was determined using HitHunter™ cAMPXS kits (DiscoverX) following manufacturer protocol. The plates were incubated for overnight at room temperature in the dark. Luminescence was measured using an EnVision Multilabel plate reader (Perkin Elmer). Native GLP-1 and Glucagon (Bachem) are used as control peptides. EC50 values were calculated using uses a 4 parameter logistic fit based on the Levenberg-Marquardt algorithm.

Row | Compound | EC50 | hGCGR/hGLP1R (hTone)
1 | CC(C)C[C@H](NC(=O)[C@H](Cc1ccc(O)cc1)NC(=O)[C@H](CCCCN)NC(=O)[C@H](CO)NC(=O)[C@H](Cc1ccc(O)cc1)NC(=O)[C@H](CC(=O)O)NC(=O)[C@H](CO)NC(=O)[C@@H](NC(=O)[C@H](Cc1ccccc1)NC(=O)[C@@H](NC(=O)CNC(=O)[C@H](CCC(N)=O)NC(=O)C(C)(C)NC(=O)[C@@H](N)Cc1c[nH]cn1)[C@@H](C)O)[C@@H](C)O)C(=O)N[C@@H](CC(=O)O)C(=O)N[C@@H](C)C(=O)N[C@@H](CCCNC(=N)N)C(=O)N[C@@H](C)C(=O)N[C@@H](C)C(=O)N[C@@H](CCCCNC(=O)COCCOCCNC(=O)CC[C@H](NC(=O)CCCCCCCCCCCCCCCCC(=O)O)C(=O)O)C(=O)N[C@@H](CC(=O)O)C(=O)N[C@@H](Cc1ccccc1)C(=O)N[C@H](C(=O)N[C@@H](CCC(N)=O)C(=O)N[C@@H](Cc1c[nH]c2ccccc12)C(=O)N[C@@H](CC(C)C)C(=O)N[C@@H](CCS(C)(=O)=O)C(=O)N[C@@](C)(CC(=O)O)C(=O)N[C@H](C(N)=O)[C@@H](C)O)C(C)C [TP628] (H-H[Aib]QGTFTSDYSKYLDARAAK([AEEA-γGlu-C18 diacid])DFVQWL[Met(O2)][αMeD]T-NH2; N-terminus assumed) | 0.86 nM | 0.6
2 | HsQGTFTSDNle(1,2,3-triazole-4-C4-Lys-C16)SKYLDARAAQDFVQWLLDT-NH2 (HXQGTFTSDXSKYLDARAAQDFVQWLLDT; D-Ser, Nle-triazole-C4-Lys-C16 lipid; C-terminal amide; peptide TP831; (2)..(2) Xaa is D-Serine; (10)..(10) Xaa is Nle(1,2,3-triazole-4-C4-Lys-C16); (29)..(29) Xaa is C-terminal amide) | – | 1.66
3 | CC(C)C[C@H](NC(=O)[C@H](Cc1ccc(O)cc1)NC(=O)[C@H](CCCCN)NC(=O)[C@H](CO)NC(=O)[C@H](Cc1ccc(O)cc1)NC(=O)[C@H](CC(=O)O)NC(=O)[C@H](CO)NC(=O)[C@@H](NC(=O)[C@H](Cc1ccccc1)NC(=O)[C@@H](NC(=O)CNC(=O)[C@H](CCC(N)=O)NC(=O)C(C)(C)NC(=O)[C@@H](N)Cc1c[nH]cn1)[C@@H](C)O)[C@@H](C)O)C(=O)N[C@@H](CC(=O)O)C(=O)N[C@@H](C)C(=O)N[C@@H](CCCNC(=N)N)C(=O)N[C@@H](C)C(=O)N[C@@H](C)C(=O)N[C@@H](CCC(N)=O)C(=O)N[C@@H](Cc1ccc(CNC(=O)COCCOCCNC(=O)COCCOCCNC(=O)CC[C@H](NC(=O)CCCCCCCCCCCCCCCCC(=O)O)C(=O)O)cc1)C(=O)N[C@@H](Cc1ccccc1)C(=O)N[C@H](C(=O)N[C@@H](CCC(N)=O)C(=O)N[C@@H](Cc1c[nH]c2ccccc12)C(=O)N[C@@H](CC(C)C)C(=O)N[C@@H](CC(C)C)C(=O)N[C@@H](CC(=O)O)C(=O)N[C@H](C(N)=O)[C@@H](C)O)C(C)C [TP443] (H-H[Aib]QGTFTSDYSKYLDARAAQ[Phe(4-CH2NH2)]([AEEA-AEEA-γGlu-C18 diacid])FVQWLLDT-NH2) | – | 1.8
4 | CC(C)C[C@H](NC(=O)[C@H](Cc1c[nH]c2ccccc12)NC(=O)[C@H](CCC(N)=O)NC(=O)[C@@H](NC(=O)[C@H](Cc1ccccc1)NC(=O)[C@H](CC(=O)O)NC(=O)[C@H](CCC(N)=O)NC(=O)[C@H](C)NC(=O)[C@H](C)NC(=O)[C@H](CCCNC(=N)N)NC(=O)C(C)(C)NC(=O)[C@H](CC(=O)O)NC(=O)[C@H](CC(C)C)NC(=O)[C@H](Cc1ccc(O)cc1)NC(=O)[C@H](CCCCN)NC(=O)[C@H](CO)NC(=O)[C@H](Cc1ccc(O)cc1)NC(=O)[C@H](CC(=O)O)NC(=O)[C@H](CO)NC(=O)[C@@H](NC(=O)[C@H](Cc1ccccc1)NC(=O)[C@@H](NC(=O)CNC(=O)[C@H](CCC(N)=O)NC(=O)[C@@H](CO)NC(=O)[C@@H](N)Cc1c[nH]cn1)[C@@H](C)O)[C@@H](C)O)C(C)C)C(=O)N[C@@H](CC(C)C)C(=O)N[C@@H](CCCCNC(=O)COCCOCCNC(=O)COCCOCCNC(=O)CC[C@H](NC(=O)CCCCCCCCCCCCCCCCC(=O)O)C(=O)O)C(=O)N[C@H](C(=O)N[C@@H](CCCCN)C(=O)N[C@@H](CCC(N)=O)C(=O)O)[C@@H](C)O [TP685] (H-H[dS]QGTFTSDYSKYLD[Aib]RAAQDFVQWLLK([AEEA-AEEA-γGlu-C18 diacid])TKQ-OH; N-terminus and C-terminus assumed) | – | 7.9
5 | CC(C)C[C@H](NC(=O)[C@H](CC(C)C)NC(=O)[C@H](CCCCN)NC(=O)[C@H](CO)NC(=O)[C@H](Cc1ccc(O)cc1)NC(=O)[C@H](CC(=O)O)NC(=O)[C@H](CO)NC(=O)[C@@H](NC(=O)[C@H](Cc1ccccc1)NC(=O)[C@@H](NC(=O)CNC(=O)[C@H](CCC(N)=O)NC(=O)C(C)(C)NC(=O)[C@@H](N)Cc1c[nH]cn1)[C@@H](C)O)[C@@H](C)O)C(=O)N[C@@H](CC(=O)O)C(=O)N[C@@H](C)C(=O)N[C@@H](CCCNC(=N)N)C(=O)N[C@@H](C)C(=O)N[C@@H](C)C(=O)N[C@@H](CCCCNC(=O)COCCOCCNC(=O)COCCOCCNC(=O)CC[C@H](NC(=O)CCCCCCCCCCCCCCCCC(=O)O)C(=O)O)C(=O)N[C@@H](CC(=O)O)C(=O)N[C@@H](Cc1ccccc1)C(=O)N[C@H](C(=O)N[C@@H](CCC(N)=O)C(=O)N[C@@H](Cc1c[nH]c2ccccc12)C(=O)N[C@@H](CC(C)C)C(=O)N[C@@H](CCS(C)(=O)=O)C(=O)N[C@@](C)(CC(=O)O)C(=O)N[C@H](C(N)=O)[C@@H](C)O)C(C)C [TP640] (H-H[Aib]QGTFTSDYSKLLDARAAK([AEEA-AEEA-γGlu-C18 diacid])DFVQWL[Met(O2)][αMeD]T-NH2) | – | 0.8
6 | CC(C)C[C@H](NC(=O)[C@H](Cc1ccc(O)cc1)NC(=O)[C@H](CCCCN)NC(=O)[C@H](CO)NC(=O)[C@H](Cc1ccc(O)cc1)NC(=O)[C@H](CC(=O)O)NC(=O)[C@H](CO)NC(=O)[C@@H](NC(=O)[C@H](Cc1ccccc1)NC(=O)[C@@H](NC(=O)CNC(=O)[C@H](CCC(N)=O)NC(=O)C(C)(C)NC(=O)[C@@H](N)Cc1c[nH]cn1)[C@@H](C)O)[C@@H](C)O)C(=O)N[C@@H](CC(=O)O)C(=O)N[C@@H](CCC(=O)O)C(=O)N[C@@H](CCCNC(=N)N)C(=O)N[C@@H](C)C(=O)N[C@@H](C)C(=O)N[C@@H](CCCCNC(=O)COCCOCCNC(=O)COCCOCCNC(=O)CC[C@H](NC(=O)CCCCCCCCCCCCCCCCC(=O)O)C(=O)O)C(=O)N[C@@H](CC(=O)O)C(=O)N[C@@H](Cc1ccccc1)C(=O)N[C@H](C(=O)N[C@@H](CCC(N)=O)C(=O)N[C@@H](Cc1c[nH]c2ccccc12)C(=O)N[C@@H](CC(C)C)C(=O)N[C@@H](CCS(C)(=O)=O)C(=O)N[C@@](C)(CC(=O)O)C(=O)N[C@H](C(N)=O)[C@@H](C)O)C(C)C [TP613] (H-H[Aib]QGTFTSDYSKYLDERAAK([AEEA-AEEA-γGlu-C18 diacid])DFVQWL[Met(O2)][αMeD]T-NH2) | > 5 nM | >6

Reference: US11566057B2, “Long-acting co-agonists of the glucagon and GLP-1 receptors” (Merck Sharp & Dohme Corp., priority 2017, dated 2023)
